Patent US8604038B2, “Pyrrolidine derived beta 3 adrenergic receptor agonists” (Merck Sharp & Dohme Corp., priority 2009, dated 2013)

The molecules below were run against T1, human β3 adrenergic receptor (Homo sapiens, UniProt P13945) (assay: Beta-3 agonist in vitro functional assay (cAMP production, LANCE, transfected CHO cells)). Conditions: Table 3, CHO cells with cloned β3 receptor, ligands titrated 10^-12 M to 10^-5 M, read-out: Human β3 agonist functional activity.
T1 construct: expressed in transfected cells; host or cells: CHO (Chinese hamster ovary) cells, stably transfected
T1 sequence (P13945 whole entry): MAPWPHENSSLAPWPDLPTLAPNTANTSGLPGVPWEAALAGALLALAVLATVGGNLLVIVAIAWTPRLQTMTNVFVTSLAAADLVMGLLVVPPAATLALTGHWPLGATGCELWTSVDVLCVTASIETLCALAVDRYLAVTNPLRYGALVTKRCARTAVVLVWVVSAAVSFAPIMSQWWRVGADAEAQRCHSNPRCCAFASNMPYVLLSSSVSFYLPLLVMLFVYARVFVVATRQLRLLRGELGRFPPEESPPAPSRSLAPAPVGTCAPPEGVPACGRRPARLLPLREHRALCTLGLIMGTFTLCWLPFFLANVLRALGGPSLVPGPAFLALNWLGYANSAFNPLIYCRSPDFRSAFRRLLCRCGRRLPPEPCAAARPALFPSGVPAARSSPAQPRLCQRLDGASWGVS
Assay type: cell-based
Experimental: Functional Assay: For compounds in examples 1-50, cAMP production in response to ligand is measured according to Barton, et al. (1991, Agonist-induced desensitization of D2 dopamine receptors in human Y-79 retinoblastoma cells. Mol. Pharmacol. […]:650-658) modified as follows. The cAMP production is measured using a homogenous time-resolved fluorescence resonance energy transfer immunoassay (LANCE™, Perkin Elmer) according to the manufacture's instructions. Chinese hamster ovary (CHO) cells, stably transfected with the cloned β-adrenergic receptor (β1, β2 or β3) are harvested after 3 days of subculturing. Harvesting of cells is done with Enzyme-free Dissociation Media (Specialty Media). Cells are then counted and resuspended in assay buffer (Hank's Balanced salt solution supplemented with 5 mM HEPES, […]) containing a phosphodiesterase inhibitor (IBMX, 0.6 mM). The reaction is initiated by mixing 6,000 cells in 6 μL with 6 μL Alexa Fluor labeled cAMP antibody (LANCE™ kit) which is then added to an assay well containing 12 μL of compound (diluted in assay buffer to 2× final concentration). The reaction proceeds for 30 minutes at RT and is terminated by the addition of 24 ul detection buffer (LANCE™ kit). The assay plate is then incubated for 1 h at RT and time-resolved fluorescence measured on a Perkin Elmer Envision reader or equivalent. The unknown cAMP level is determined by comparing fluorescence levels to a cAMP standard curve.
The non-selective, full agonist β-adrenergic ligand isoproterenol is used at all three receptors to determine maximal stimulation. The human β3 adrenergic receptor (AR) selective ligand (S)-N-[4-[2-[[2-hydroxy-3-(4-hydroxyphenoxy)propyl]amino]ethyl]-phenyl]-4-iodobenzenesulfonamide is used as a control in all assays. […] The EC50 is defined as the concentration of compound that gives 50% activation of its own maximum. Data are analyzed using Microsoft Excel and Graphpad Prism or an internally developed data analysis software package.
The EC50 is defined as the concentration of compound that gives 50% activation of its own maximum. Functional antagonist assays are performed similar to described above; however, unknown ligands are titrated at β-adrenergic receptor subtypes 1 and 2 at a final concentration in the assay of 10^-12 M to 10^-5 M in the presence of 10^-9 M full agonist β-adrenergic ligand isoproterenol. The EC50 is defined as the concentration of compound that gives 50% inhibition of the full agonist response. Data are analyzed using Microsoft Excel and Graphpad Prism or an internally developed data analysis software package.
For `CN(Cc1cc2ccccc2cn1)C(=O)c1ccc(C[C@@H]2CC[C@H]([C@H](O)c3ccccc3)N2)cc1` [Example 52], the EC50 was 100 to 999 nM.
`CN(CCc1cccnc1)C(=O)c1ccc(C[C@@H]2CC[C@H]([C@H](O)c3ccccc3)N2)cc1` [Example 53] showed an EC50 of 10 to 99.9 nM.
`CN(Cc1ccccn1)C(=O)c1ccc(C[C@@H]2CC[C@H]([C@H](O)c3ccccc3)N2)cc1` [Example 54] gave an EC50 of 100 to 999 nM.
Molecule `CN(Cc1cccnn1)C(=O)c1ccc(C[C@@H]2CC[C@H]([C@H](O)c3ccccc3)N2)cc1` [Example 55] has an EC50 of 100 to 999 nM.
Molecule `CN(Cc1cccnn1)C(=O)c1ccc(C[C@@H]2CC[C@H]([C@H](O)c3ccc(N)nc3)N2)cc1` [Example 56] has an EC50 of 10 to 99.9 nM.
Molecule `CN(Cc1cc(Br)ccn1)C(=O)c1ccc(C[C@@H]2CC[C@H]([C@H](O)c3ccccc3)N2)cc1` [Example 57] has an EC50 of 10 to 99.9 nM.
In the case of `CN(Cc1cnn(-c2ccccc2)n1)C(=O)c1ccc(C[C@@H]2CC[C@H]([C@H](O)c3ccccc3)N2)cc1` [Example 58], the EC50 is reported as 10 to 99.9 nM.
`CN(Cc1cccnc1)C(=O)c1ccc(C[C@@H]2CC[C@H]([C@H](O)c3ccc(N)nc3)N2)cc1` [Example 59] gave an EC50 of under 1 nM.
With `CN(Cc1cccc(F)c1)C(=O)c1ccc(C[C@@H]2CC[C@H]([C@H](O)c3ccccc3)N2)cc1` [Example 60] the EC50 was 1 to 9.9 nM.
`CN(Cc1cnc2ccccc2n1)C(=O)c1ccc(C[C@@H]2CC[C@H]([C@H](O)c3ccccc3)N2)cc1` [Example 61] gave an EC50 of 1 to 9.9 nM.
`Cc1cccnc1CN(C)C(=O)c1ccc(C[C@@H]2CC[C@H]([C@H](O)c3ccccc3)N2)cc1` [Example 62] was tested, and the EC50 was 10 to 99.9 nM.
`COCCN(C)C(=O)c1ccc(C[C@@H]2CC[C@H]([C@H](O)c3ccccc3)N2)cc1` [Example 64] showed an EC50 of 10 to 99.9 nM.
In the case of `COc1ccccc1CN(C)C(=O)c1ccc(C[C@@H]2CC[C@H]([C@H](O)c3ccccc3)N2)cc1` [Example 65], the EC50 is reported as 10 to 99.9 nM.
Work on `Cc1nc(CN(C)C(=O)c2ccc(C[C@@H]3CC[C@H]([C@H](O)c4ccccc4)N3)cc2)cs1` [Example 66] yielded an EC50 of 10 to 99.9 nM.
With `Cc1cccc(CN(C)C(=O)c2ccc(C[C@@H]3CC[C@H]([C@H](O)c4ccccc4)N3)cc2)n1` [Example 67] the EC50 was 10 to 99.9 nM.
For `CN(Cc1ccccc1)C(=O)c1ccc(C[C@@H]2CC[C@H]([C@H](O)c3ccccc3)N2)cc1` [Example 68], the EC50 was 100 to 999 nM.
For `CN(C)C(=O)c1ccc(C[C@@H]2CC[C@H]([C@H](O)c3ccccc3)N2)cc1` [Example 69], the EC50 was 10 to 99.9 nM.
Work on `CN(Cc1nc2ccccc2n1C)C(=O)c1ccc(C[C@@H]2CC[C@H]([C@H](O)c3ccccc3)N2)cc1` [Example 70] yielded an EC50 of 100 to 999 nM.
`CN(Cc1ccncc1)C(=O)c1ccc(C[C@@H]2CC[C@H]([C@H](O)c3ccccc3)N2)cc1` [Example 71] showed an EC50 of 100 to 999 nM.
`CN(Cc1nnn(C)n1)C(=O)c1ccc(C[C@@H]2CC[C@H]([C@H](O)c3ccccc3)N2)cc1` [Example 72] showed an EC50 of 10 to 99.9 nM.
`CN(Cc1ncn(C)n1)C(=O)c1ccc(C[C@@H]2CC[C@H]([C@H](O)c3ccccc3)N2)cc1` [Example 73] gave an EC50 of 100 to 999 nM.
Molecule `CN(Cc1cnccn1)C(=O)c1ccc(C[C@@H]2CC[C@H]([C@H](O)c3ccccc3)N2)cc1` [Example 74] has an EC50 of 10 to 99.9 nM.
`CN(Cc1nn(C)c(Cl)c1Cl)C(=O)c1ccc(C[C@@H]2CC[C@H]([C@H](O)c3ccccc3)N2)cc1` [Example 75] showed an EC50 of 1 to 9.9 nM.
`CN(Cc1nccn1C)C(=O)c1ccc(C[C@@H]2CC[C@H]([C@H](O)c3ccccc3)N2)cc1` [Example 76] gave an EC50 of 100 to 999 nM.
Molecule `CN(Cc1cccc(Br)n1)C(=O)c1ccc(C[C@@H]2CC[C@H]([C@H](O)c3ccccc3)N2)cc1` [Example 77] has an EC50 of 10 to 99.9 nM.
In the case of `CN(Cc1ccc(Br)cn1)C(=O)c1ccc(C[C@@H]2CC[C@H]([C@H](O)c3ccccc3)N2)cc1` [Example 78], the EC50 is reported as 10 to 99.9 nM.
`CN(Cc1ccncn1)C(=O)c1ccc(C[C@@H]2CC[C@H]([C@H](O)c3ccccc3)N2)cc1` [Example 79] gave an EC50 of 100 to 999 nM.
Work on `CC(C)c1nccc(CN(C)C(=O)c2ccc(C[C@@H]3CC[C@H]([C@H](O)c4ccccc4)N3)cc2)n1` [Example 80] yielded an EC50 of 1 to 9.9 nM.
Molecule `Cc1nccc(CN(C)C(=O)c2ccc(C[C@@H]3CC[C@H]([C@H](O)c4ccccc4)N3)cc2)n1` [Example 81] has an EC50 of 10 to 99.9 nM.
`Cc1cc(CN(C)C(=O)c2ccc(C[C@@H]3CC[C@H]([C@H](O)c4ccccc4)N3)cc2)on1` [Example 82] showed an EC50 of 10 to 99.9 nM.
With `CN(Cc1cccc(N2CCCC2)n1)C(=O)c1ccc(C[C@@H]2CC[C@H]([C@H](O)c3ccccc3)N2)cc1` [Example 83] the EC50 was 100 to 999 nM.
In the case of `CN(Cc1nc2ccccc2[nH]1)C(=O)c1ccc(C[C@@H]2CC[C@H]([C@H](O)c3ccccc3)N2)cc1` [Example 84], the EC50 is reported as 100 to 999 nM.
In the case of `CN(Cc1n[nH]c2c1CCCC2)C(=O)c1ccc(C[C@@H]2CC[C@H]([C@H](O)c3ccccc3)N2)cc1` [Example 85], the EC50 is reported as under 1 nM.
In the case of `CN(Cc1ccon1)C(=O)c1ccc(C[C@@H]2CC[C@H]([C@H](O)c3ccccc3)N2)cc1` [Example 86], the EC50 is reported as 10 to 99.9 nM.
Molecule `O=C(c1ccc(C[C@@H]2CC[C@H]([C@H](O)c3ccccc3)N2)cc1)N(CCO)Cc1ccccc1F` [Example 87] has an EC50 of 1 to 9.9 nM.
Work on `Cc1csc(CCN(C)C(=O)c2ccc(C[C@@H]3CC[C@H]([C@H](O)c4ccccc4)N3)cc2)n1` [Example 88] yielded an EC50 of 10 to 99.9 nM.
With `CC(C)c1nc(CCN(C)C(=O)c2ccc(C[C@@H]3CC[C@H]([C@H](O)c4ccccc4)N3)cc2)no1` [Example 89] the EC50 was 10 to 99.9 nM.
Work on `COCc1cc(CN(C)C(=O)c2ccc(C[C@@H]3CC[C@H]([C@H](O)c4ccccc4)N3)cc2)n[nH]1` [Example 90] yielded an EC50 of under 1 nM.
With `CN(Cc1ccc2nccnc2c1)C(=O)c1ccc(C[C@@H]2CC[C@H]([C@H](O)c3ccccc3)N2)cc1` [Example 92] the EC50 was 10 to 99.9 nM.
With `CC(C)c1noc(CN(C)C(=O)c2ccc(C[C@@H]3CC[C@H]([C@H](O)c4ccccc4)N3)cc2)n1` [Example 93] the EC50 was 10 to 99.9 nM.
For `CN(Cc1cnn(-c2ccccc2)c1)C(=O)c1ccc(C[C@@H]2CC[C@H]([C@H](O)c3ccccc3)N2)cc1` [Example 97], the EC50 was 10 to 99.9 nM.
`CN(CCC1CCOCC1)C(=O)c1ccc(C[C@@H]2CC[C@H]([C@H](O)c3ccccc3)N2)cc1` [Example 99] was tested, and the EC50 was 100 to 999 nM.
For `Cc1cc2nc(CN(C)C(=O)c3ccc(C[C@@H]4CC[C@H]([C@H](O)c5ccccc5)N4)cc3)[nH]c2cc1C` [Example 101], the EC50 was 100 to 999 nM.
In the case of `CN(Cc1nc(-c2ccncc2)no1)C(=O)c1ccc(C[C@@H]2CC[C@H]([C@H](O)c3ccccc3)N2)cc1` [Example 103], the EC50 is reported as 100 to 999 nM.
`CCN(Cc1ccnc(C(C)C)n1)C(=O)c1ccc(C[C@@H]2CC[C@H]([C@H](O)c3ccccc3)N2)cc1` [Example 104] gave an EC50 of 10 to 99.9 nM.
For `CN(Cc1ncccc1F)C(=O)c1ccc(C[C@@H]2CC[C@H]([C@H](O)c3ccccc3)N2)cc1` [Example 106], the EC50 was 10 to 99.9 nM.
`CN(Cc1cc(-c2ccncc2)on1)C(=O)c1ccc(C[C@@H]2CC[C@H]([C@H](O)c3ccccc3)N2)cc1` [Example 107] was tested, and the EC50 was 100 to 999 nM.
For `CN(Cc1cscn1)C(=O)c1ccc(C[C@@H]2CC[C@H]([C@H](O)c3ccccc3)N2)cc1` [Example 108], the EC50 was 100 to 999 nM.
`CN(Cc1cccc2ncccc12)C(=O)c1ccc(C[C@@H]2CC[C@H]([C@H](O)c3ccccc3)N2)cc1` [Example 109] showed an EC50 of 100 to 999 nM.
For `CN(Cc1noc(C2CC2)n1)C(=O)c1ccc(C[C@@H]2CC[C@H]([C@H](O)c3ccccc3)N2)cc1` [Example 112], the EC50 was 10 to 99.9 nM.
`CN(Cc1ncc[nH]1)C(=O)c1ccc(C[C@@H]2CC[C@H]([C@H](O)c3ccccc3)N2)cc1` [Example 113] gave an EC50 of 10 to 99.9 nM.
